Data on four compounds can be found in patent publication US20220211657A1, “METHODS OF TREATING GASTROINTESTINAL CANCERS AND TUMORS THEREOF USING COMBINATION THERAPY” (GEORGETOWN UNIVERSITY, priority 2019, published 2022).

The subject of data set [1] is metastatic pancreatic cancer. The following applies: first-line standard of care; cited from earlier work.
A further data set relates to BRCA1/2-mutated tumors. The following applies: out of 24 patients with BRCA1/2-mutated tumors; cited from earlier work.
Data set [2] deals with BRCA1/2-mutated pancreatic cancer. The following applies: cited from earlier work.
The nature of data set [3]: Pharmacokinetic assessment of veliparib (Day 1, 3, 7 samples). In kind it is in vivo, human. The following applies: 14 subjects in 5 dosing cohorts. The procedure: For the Phase I portion of the study, plasma samples were obtained from patients on Day 1 (pre-dose), Day 3, and Day 7 for pharmacokinetic (PK) assessment of veliparib. Results were compared to historical controls to identify any effect on veliparib pharmacokinetics by oxaliplatin or 5-fluorouracil. […] Next generation sequencing (NGS) of cancer-related genes was performed on tumor samples. Results from patients were captured, if ordered by the treating physician prior to enrollment, and sequencing was performed commercially by Foundation Medicine (FM), Caris Life Sciences, or through commercial germline testing labs such as Myriad or Invitae. […] Patients were defined as harboring HR-DDR mutations if a known pathogenic mutation in one of the HR-DDR genes (including but not limited to: ARID1A, ATM, ATRX, MRE11A, NBN, PTEN, RAD50/51/51B, BARD1, BLM, BRCA1, BRCA2, BRIP1, FANCA/C/D2/E/F/G/L, PALB2, WRN, CHEK2, CHEK1, BAP1, FAM175A, SLX4, MLL2, or XRCC) was identified in a blood sample (germline) or tumor sample (somatic).

Data set [4] is described as follows: Phase I dose escalation of veliparib plus FOLFOX (dose limiting toxicities, recommended Phase II dose). Type of data set: in vivo. The protocol: The study was designed as a single center, Phase I/II, open label study of veliparib plus FOLFOX. At the time of study initiation, the dose and schedule for modified FOLFOX (de Gramont et al., “Leucovorin and Fluorouracil With or Without Oxaliplatin as First-Line Treatment in Advanced Colorectal Cancer,” J. Clin. Oncol. 18:2938-2947 (2000), which is hereby incorporated by reference in its entirety) was used (5-fluorouracil bolus 400 mg/m^2 Day 1; leucovorin 400 mg/m^2 Day 1; oxaliplatin 85 mg/m^2 Day 1; and 5-fluorouracil 2400 mg/m^2 continuous infusion over 46 hours, Days 1-3). Each cycle was 14 days. […] With regards to the veliparib, for the Phase I portion, the dose of veliparib was escalated in a standard 3+3 design from the lowest dose of 40 mg twice a day (BID) days 1-7 of each 14-day cycle. Dose levels were 40 mg, 60 mg, 80 mg, 100 mg, 150 mg, 200 mg, and 250 mg. For the Phase II portion, the recommended Phase II dose (RP2D) was 200 mg of veliparib, though the protocol did allow for stepwise de-escalation to 150 mg and then to 100 mg for toxicity after the first cycle. […] Tumor response was assessed radiographically every 8-12 weeks using Response Evaluation Criteria in Solid Tumors criteria version 1.1 (Eisenhauer et al., “New Response Evaluation Criteria in Solid Tumours: Revised RECIST Guideline (Version 1.1),” Eur. J. Cancer 45:228-247 (2009), which is hereby incorporated by reference in its entirety). […] The primary objective of the Phase I portion was to determine the recommended Phase II dose, with the primary endpoint being adverse events, as measured by the National Cancer Institute Common Terminology Criteria for Adverse Events, Version 4.03, which is hereby incorporated by reference in its entirety. […]
The primary objective of the Phase I portion of the trial was to determine the recommended Phase II dose, by assessing the safety and tolerability as determined by adverse events, defined by the National Cancer Institute Common Terminology Criteria for Adverse Events, Version 4.03, which is hereby incorporated by reference in its entirety. […]

Regarding `Nc1ccn([C@@H]2O[C@H](CO)[C@@H](O)C2(F)F)c(=O)n1` [gemcitabine], in data set [1], the response rate is recorded as 7%.

As to `O=C(c1cc(Cc2n[nH]c(=O)c3ccccc23)ccc1F)N1CCN(C(=O)C2CC2)CC1` [olaparib], in the data set with BRCA1/2-mutated tumors, the patients who responded is 4 patients.

In the case of `CNCc1ccc(-c2[nH]c3cc(F)cc4c3c2CCNC4=O)cc1` [rucaparib], the “patients who did not respond to platinum but did respond” value in data set [2] (in vivo) was “two”. For the same compound, the responses in data set [2] (out of 19 patients with BRCA1/2-mutated pancreatic cancer) was 4.

With `C[C@]1(c2nc3c(C(N)=O)cccc3[nH]2)CCCN1` [veliparib], the “impact of co-administration of FOLFOX on veliparib pharmacokinetics” value in data set [3] is “no apparent impact”. Further, the “protocol-defined dose limiting toxicity” value in data set [4] (human, in vivo) is “treatment delay of >3 weeks”. Further, the dose limiting toxicities entry in data set [4] (in vivo) is listed as “one”. In data set [4] (veliparib BID days 1-7 of each 14-day cycle plus FOLFOX), the “recommended Phase II dose” value is reported as 200 mg.
